The record followed here is ChEMBL document CHEMBL1133555 (J Med Chem, 2000).

Assay [1] addresses Norepinephrine transporter (Rattus norvegicus, UniProt Q9WTR4). Briefly: Binding affinity for norepinephrine transporter (NET) labeled with [3H]nisoxetine.
For assay [2], the target named is Sodium-dependent dopamine transporter (Rattus norvegicus, UniProt P23977). Briefly: Binding affinity for dopamine transporter (DAT) labeled with [125 I]RTI-55.
Assay [3] has as its target Sodium-dependent serotonin transporter (Rattus norvegicus, UniProt P31652). As to the kind of experiment: Binding affinity for serotonin transporter labeled with [125 I]RTI-55.

Norepinephrine transporter, sequence (Q9WTR4 whole entry): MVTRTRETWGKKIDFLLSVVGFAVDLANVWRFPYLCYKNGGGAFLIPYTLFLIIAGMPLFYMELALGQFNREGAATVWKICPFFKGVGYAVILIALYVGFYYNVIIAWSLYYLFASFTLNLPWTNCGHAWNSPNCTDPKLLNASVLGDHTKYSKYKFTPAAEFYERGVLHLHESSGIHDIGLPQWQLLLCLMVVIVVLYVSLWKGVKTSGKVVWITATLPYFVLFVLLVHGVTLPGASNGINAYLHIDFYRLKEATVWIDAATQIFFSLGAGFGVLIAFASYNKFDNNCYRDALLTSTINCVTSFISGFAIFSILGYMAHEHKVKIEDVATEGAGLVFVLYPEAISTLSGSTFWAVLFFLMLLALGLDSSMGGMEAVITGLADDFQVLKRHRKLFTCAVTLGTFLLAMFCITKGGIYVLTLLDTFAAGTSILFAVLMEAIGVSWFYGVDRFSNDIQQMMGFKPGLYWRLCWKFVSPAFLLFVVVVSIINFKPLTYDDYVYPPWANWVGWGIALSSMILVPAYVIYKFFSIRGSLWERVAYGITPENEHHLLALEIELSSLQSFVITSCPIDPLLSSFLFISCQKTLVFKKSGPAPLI
Sodium-dependent dopamine transporter, sequence (P23977 whole entry): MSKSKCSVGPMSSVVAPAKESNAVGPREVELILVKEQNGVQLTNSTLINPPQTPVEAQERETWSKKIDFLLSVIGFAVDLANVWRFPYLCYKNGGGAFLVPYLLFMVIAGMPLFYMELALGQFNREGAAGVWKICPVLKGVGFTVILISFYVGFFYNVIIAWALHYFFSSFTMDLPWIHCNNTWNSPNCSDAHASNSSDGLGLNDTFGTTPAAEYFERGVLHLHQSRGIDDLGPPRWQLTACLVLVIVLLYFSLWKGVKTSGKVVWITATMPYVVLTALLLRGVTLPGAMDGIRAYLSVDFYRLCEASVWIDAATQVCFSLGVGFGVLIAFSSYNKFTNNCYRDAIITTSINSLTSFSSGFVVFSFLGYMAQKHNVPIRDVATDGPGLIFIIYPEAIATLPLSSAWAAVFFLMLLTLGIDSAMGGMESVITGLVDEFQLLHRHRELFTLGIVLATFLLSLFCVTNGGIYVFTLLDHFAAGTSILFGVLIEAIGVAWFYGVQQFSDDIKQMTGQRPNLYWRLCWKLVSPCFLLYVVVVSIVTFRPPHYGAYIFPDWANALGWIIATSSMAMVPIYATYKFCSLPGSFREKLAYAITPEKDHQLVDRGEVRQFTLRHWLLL
Sodium-dependent serotonin transporter, sequence (P31652 whole entry): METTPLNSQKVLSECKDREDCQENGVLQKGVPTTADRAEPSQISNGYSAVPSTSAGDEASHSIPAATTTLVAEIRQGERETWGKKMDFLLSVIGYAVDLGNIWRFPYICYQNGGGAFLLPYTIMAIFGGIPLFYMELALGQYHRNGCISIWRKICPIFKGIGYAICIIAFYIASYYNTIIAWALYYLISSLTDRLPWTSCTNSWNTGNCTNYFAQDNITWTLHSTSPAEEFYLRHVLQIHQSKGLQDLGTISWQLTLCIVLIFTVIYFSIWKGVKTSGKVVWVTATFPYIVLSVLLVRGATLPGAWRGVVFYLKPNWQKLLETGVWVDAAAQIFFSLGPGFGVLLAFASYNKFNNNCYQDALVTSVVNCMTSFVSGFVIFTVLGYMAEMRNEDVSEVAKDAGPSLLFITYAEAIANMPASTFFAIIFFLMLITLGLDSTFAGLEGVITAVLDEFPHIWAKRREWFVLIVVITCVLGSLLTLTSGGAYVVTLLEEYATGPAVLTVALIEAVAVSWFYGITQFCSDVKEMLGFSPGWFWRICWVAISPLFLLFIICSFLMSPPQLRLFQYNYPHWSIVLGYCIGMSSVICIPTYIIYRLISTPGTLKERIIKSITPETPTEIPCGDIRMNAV

The term Ki denotes a measure of affinity in units of concentration, obtained from inhibition or displacement. Regarding `CN[C@@H]1CC(c2ccc(Cl)c(Cl)c2)c2cccc(OC)c21` (stereo partly specified), the results for the Ki in assay [1], in assay [2] and in assay [3] were 0.093 µM, 0.032 µM and 0.108 µM, respectively.

Regarding `CN[C@@H]1CC(c2ccc(Cl)c(Cl)c2)c2cc(OC)c(OC)cc21` (stereo partly specified), the Ki in assay [1] was found to be 0.102 µM; in assay [2], 0.0036 µM; in assay [3] it was 0.061 µM.

As to `CN[C@@H]1CC(c2ccc(Cl)c(Cl)c2)c2ccc(OC)cc21` (stereo partly specified), the values for the Ki in assay [1], in assay [2] and in assay [3] were 0.015 µM, 0.0116 µM and 0.0011 µM, respectively.

As to `CN[C@@H]1CC(c2ccc(Cl)c(Cl)c2)c2cc(OC)ccc21` (stereo partly specified), the values for the Ki in assay [1], in assay [2] and in assay [3] were 0.0765 µM, 0.0094 µM and 0.0065 µM, respectively.

For `CN[C@@H]1CC(c2ccc(Cl)c(Cl)c2)c2c(OC)cccc21` (stereo partly specified), the Ki in assay [1] amounted to 0.027 µM; in assay [2] it was 0.0017 µM; in assay [3] it was 0.063 µM.

In the case of `CN[C@@H]1CC(c2ccc(Cl)c(Cl)c2OC)c2ccc(OC)cc21` (stereo partly specified), the Ki was 0.122 µM in assay [1], 0.788 µM in assay [2] and 0.0056 µM in assay [3].

Take `CN[C@H]1c2cc(OC)ccc2C(c2ccc(Cl)c(Cl)c2)[C@@H]1O` (stereo partly specified): the Ki in assay [1] is 1.69 µM; in assay [2], 1.13 µM; in assay [3], 0.0081 µM.
